PMC5691209, “Specific Targeting of Melanotic Cells with Peptide Ligated Photosensitizers for Photodynamic Therapy” (Scientific Reports, 2017)

How the values were obtained:
[1] = test system: B16-F10 mouse melanoma cells; assay: Melanin assay (extra- and intracellular melanin production); format: cell-based; settings: B16-F10, 72 h at 37 °C, OD at 475 nm, α-MSH 10 nM, NAP, HPPH-NAP, MB, HPPH 1 µM, mean of three independent experiments
Procedure: B16-F10 mouse melanoma cells or human mid-pigmented melanoma cells FM55 were seeded in Nunc 6-well tissue culture plates using DMEM medium without phenol red. After overnight incubation of the cells at 37 °C, various photosensitizers (1 µM) or peptide conjugated photosensitizers (1 µM) were added at room temperature and the cells were incubated at 37 °C for 72 h. After three days of incubation, supernatants of cell (200 µL) were pipetted out from Nunc 6-well tissue culture plates as extracellular melanin pigment and three concurrent absorption measurements were taken at 475 nm using a Spectra Max MS microplate/cuvette reader (Fig. 3c,e). Adherent cells in the Nunc 6-well plates were detached with 0.02% EDTA and centrifuged at 2000 rpm for 3 min. […] Three concurrent absorption measurements were taken at 475 nm using a Spectra Max MS microplate/cuvette reader (Fig. 3d,f). […]
B16-F10 and FM55 melanin assays are represented as the average of three independent experiments expressed as Mean ± SEM. Differences between various groups were calculated using one way ANOVA post Bonferroni’s multiple comparison test and results were reported as significant if P-value was below 0.05. Phototoxicity SRB data of B16-F10, MeL, FM55 and N/TERT-1 was analyzed via student t test and significance was reported if P-value was below 0.05.

B16-F10 melanoma cells = assay: Cell proliferation with LED light irradiation (Incucyte confluence); format: cell-based, mouse; settings: 5 µM
Procedure: B16-F10 murine melanoma cells were seeded at a density of 3000–4000 cells per well in 96-well black-view Perkin-Elmer plates using DMEM medium without phenol red. After an overnight incubation at 37 °C, the medium was aspirated from the wells and varying concentrations of synthetic peptide-photosensitizer constructs diluted in DMEM medium were added to the cells. The cells were incubated in dark at 37 °C for 4 h and then washed twice with 1X PBS buffer (200 µL). Fresh medium (300 µL) was added to the wells before placing the plates in the Incucyte ZOOM live cell imaging machine to capture the images after every hour. Percentage of confluence was measured over a time period of 24–72 h. For skin keratinocyte cell line N/TERT-1, the starting confluence was 75–85% of cell density for the initial light experiments. The higher cell density was used to mimic the physiological condition in the body, where keratinocytes are present in much larger numbers (30:1) than melanocytes.
This combinatorial equipment comprises light irradiation system with multiple wavelengths LED (From UVA to near IR) assembled with well-established incucyte that contains incubator and light microscope. […] Incucyte light microscope was used to capture images of the cell growth at every hour or two, from which percentage confluence (i.e. cell densities) were calculated. […]

Molecule	extra- and intracellular melanin production [1]	light induced cytotoxicity (cell proliferation) (B16-F10 melanoma cells; B16-F10, 627 nm LED light 0.10 mW/cm^2, 48 h continuously)	light induced cytotoxicity (cell proliferation) (B16-F10 melanoma cells; B16-F10, 660 nm LED light 0.10 mW/cm^2, 48 h continuously)
CN(C)c1ccc2nc3ccc(=[N+](C)C)cc-3sc2c1 [MB, methylene blue]	did not induce any melanin production	–	–
2-(1-hexyloxyethyl)-2-devinyl pyropheophorbide [HPPH]	did not induce any melanin production	cytotoxicity was observed	cytotoxicity was observed
